# According to US12653191B2, “Active compound combinations” (Bayer Aktiengesellschaft, priority 2020, dated 2026):
# “And” between values parts separate entries of the source, which are not always exact repeats. Equal values may be shown once. Read-outs that look alike come from different tables or passages of the source.
# How the values were obtained:
# Alternaria alternate = experiment: in vitro-Test with fungal microorganisms, Method A (tables A1-A12); format: cell-based, Alternaria alternata; settings: Alternaria, applied alone, read-out: Efficacy %
# Method: (§1) Example: In Vitro-Test with Fungal Microorganisms
# (§2) Wells of 96-well microtiter plates are filled with 10 μl of a preparation of test compound or compound combination in methanol+emulsifier alkylaryl-polyglycol-ether. Thereafter, the solvent is evaporated in a hood. At the next step, 100 μl of liquid potato dextrose medium is given into each well, that has been amended with an appropriate concentration of spores or mycelium suspension of the test fungus.
# (§3) With the aid of a photometer, the extinction in all wells is measured at the wavelength of 620 nm.
# (§4) The microtiter plates are incubated at 20° C. and 85% relative humidity. The inhibition of growth is determined again photometrically 3-5 days after the application. Efficacy is calculated in relation to the untreated control, 0% efficacy means fungal growth as high as in untreated control while 100% efficacy means no fungal growth is measured.
# (§5) The data in tables A1 to A12, B1 to B14, C1 to C10, D1 to D8, E1 to E8, F1 to F11, G1 to G4, H1 to H4 and I1 to I5 were collected according to Method A. The data in tables A13 to A22, B15 to B18, C11 to C20, E9 to E16, F12 to F15, G5 to G15, H5 to H8, I6 to I11 and J1 to J11 were collected according to Method B.
# Cordana musae [1] = experiment: in vitro-Test with fungal microorganisms, Method B (tables E9-E16); format: cell-based; settings: single active
# Method: as §1
# as §2, with “30” for “10”, “200” for “100”, “growth” for “potato dextrose”, “given,” for “given into each well,”
# (§6) With the aid of a photometer, the extinction in all wells is measured at the wavelength of 600 nm.
# (§7) The microtiter plates are incubated for 3 to 7 days at 20° C. and 85% relative humidity. After the incubation inhibition of growth is determined photometrically. Efficacy is calculated in relation to the untreated control, 0% efficacy means fungal growth as high as in untreated control while 100% efficacy means no fungal growth is measured.
# as §5
# Cercospora beticola [2] = experiment: in vitro-Test with fungal microorganisms, Method B (tables C11-C20); format: cell-based
# Method: as §1
# as §2, with “30” for “10”, “200” for “100”, “growth” for “potato dextrose”, “given,” for “given into each well,”
# as §6, §7, §5
# Alternaria alternata = experiment: in vitro-Test with fungal microorganisms, Method B (tables A13-A22); format: cell-based
# Method: as §1
# as §2, with “30” for “10”, “200” for “100”, “growth” for “potato dextrose”, “given,” for “given into each well,”
# as §6, §7, §5
# Cercospora beticola [3] = experiment: in vitro-Test with fungal microorganisms, Method A (tables C1-C10); format: cell-based
# Method: as §1, §2, §3, §4, §5
# Cordana musae [4] = experiment: in vitro-Test with fungal microorganisms, Method A (tables E1-E8); format: cell-based; settings: Neocordana musae, single substance, read-out: Efficacy %
# Method: as §1, §2, §3, §4, §5
# [5] = system: Colletotrichum lindemuthianum; experiment: in vitro-Test with fungal microorganisms, Method A (tables D1-D8); format: cell-based
# Method: as §1, §2, §3, §4, §5
# Fusarium culmorum = experiment: in vitro-Test with fungal microorganisms, Method B (tables G5-G15); format: cell-based
# Method: as §1
# as §2, with “30” for “10”, “200” for “100”, “growth” for “potato dextrose”, “given,” for “given into each well,”
# as §6, §7, §5
# Diaporthe citri = experiment: in vitro-Test with fungal microorganisms, Method A (tables F1-F11); format: cell-based
# Method: as §1, §2, §3, §4, §5
# Botrytis cinerea = experiment: in vitro-Test with fungal microorganisms, Method A (tables B1-B14); format: cell-based; settings: alone
# Method: as §1, §2, §3, §4, §5
# Colletotrichum coccodes = experiment: in vitro-Test with fungal microorganisms, Method B (tables J1-J11); format: cell-based
# Method: as §1
# as §2, with “30” for “10”, “200” for “100”, “growth” for “potato dextrose”, “given,” for “given into each well,”
# as §6, §7, §5
# [6] = system: Ustilago segetum var. avenae; experiment: in vitro-Test with fungal microorganisms, Method B (tables I6-I11); format: cell-based
# Method: as §1
# as §2, with “30” for “10”, “200” for “100”, “growth” for “potato dextrose”, “given,” for “given into each well,”
# as §6, §7, §5
# [7] = Cercospora beticola, read-out: Efficacy %
# [8] = Cercospora beticola, single compound, read-out: Efficacy %
# [9] = Fusarium culmorum, alone, read-out: Efficacy
# [10] = Fusarium culmorum, single active compound, read-out: Efficacy
# [11] = single active compound at 4 ppm
smiles,measurement,setting,value
"OC(Cc1ccccc1Cl)(Cn1nc[nH]c1=S)C1(Cl)CC1 (centres unmarked) [(1.018) prothioconazole, prothioconazole]",inhibition of growth at 0.008 ppm,Alternaria alternate; 0.008 ppm,20%
same,inhibition of growth at 0.04 ppm,Alternaria alternate; 0.04 ppm,15%
same,inhibition of growth at 0.2 ppm,Alternaria alternate; 0.2 ppm,94%
same,inhibition of growth at 0.004 ppm,"Cordana musae [1]; Neocordana musae, 0.004 ppm, read-out: Efficacy",0%
same,inhibition of growth at 0.1 ppm,"Cordana musae [1]; Neocordana musae, 0.1 ppm, read-out: Efficacy",81%
same,inhibition of growth at 0.5 ppm,"Cordana musae [1]; Neocordana musae, 0.5 ppm, read-out: Efficacy",100%
same,inhibition of growth at 0.004 ppm,Cercospora beticola [2]; [7],39%
same,inhibition of growth at 0.1 ppm,Cercospora beticola [2]; [7],100%
same,inhibition of growth at 0.5 ppm,Cercospora beticola [2]; [7],100%
same,inhibition of growth at 0.004 ppm,Cercospora beticola [2]; [8],30%
same,inhibition of growth at 0.02 ppm,"Cercospora beticola [2]; Cercospora beticola, single compound, 0.02 ppm, read-out: Efficacy %",0%
same,inhibition of growth at 0.1 ppm,Cercospora beticola [2]; [8],15%
same,inhibition of growth at 0.5 ppm,Cercospora beticola [2]; [8],0%
same,inhibition of growth at 0.004 ppm,"Alternaria alternata; Alternaria alternata, single compound, 0.004 ppm, read-out: Efficacy",46%
same,inhibition of growth at 0.02 ppm,"Alternaria alternata; Alternaria alternata, single compound, 0.02 ppm, read-out: Efficacy",89%
same,inhibition of growth at 0.1 ppm,"Alternaria alternata; Alternaria alternata, single compound, 0.1 ppm, read-out: Efficacy",100%
same,inhibition of growth at 0.5 ppm,"Alternaria alternata; Alternaria alternata, single compound, 0.5 ppm, read-out: Efficacy",99%
same,Efficacy %,Cercospora beticola [3]; 0.2 ppm alone,98%
same,inhibition of growth at 0.008 ppm,"Cercospora beticola [3]; Cercospora beticola, 0.008 ppm, read-out: Efficacy %",6%
same,inhibition of growth at 0.04 ppm,"Cercospora beticola [3]; Cercospora beticola, 0.04 ppm alone, read-out: Efficacy %",22%
same,inhibition of growth at 0.04 ppm,"Cercospora beticola [3]; Cercospora beticola, 0.04 ppm, read-out: Efficacy %",38%
same,inhibition of growth at 0.2 ppm,"Cercospora beticola [3]; Cercospora beticola, 0.2 ppm alone, read-out: Efficacy %",100%
same,inhibition of growth at 0.2 ppm,"Cercospora beticola [3]; Cercospora beticola, 0.2 ppm, read-out: Efficacy %",100%
same,inhibition of growth at 1 ppm,"Cercospora beticola [3]; Cercospora beticola, 1.0 ppm alone, read-out: Efficacy %",100%
same,inhibition of growth at 1 ppm,"Cercospora beticola [3]; Cercospora beticola, 1.0 ppm, read-out: Efficacy %",100%
same,inhibition of growth at 0.04 ppm,Cordana musae [4]; 0.04 ppm,6%
same,inhibition of growth at 1 ppm,Cordana musae [4]; 1.0 ppm,100%
same,inhibition of growth at 0.008 ppm,"[5]; Colletotrichum lindemuthianum, mixing partner alone, 0.008 ppm, read-out: Efficacy %",0%
same,inhibition of growth at 0.04 ppm,"[5]; Colletotrichum lindemuthianum, mixing partner alone, 0.04 ppm, read-out: Efficacy %",20%
same,inhibition of growth at 0.2 ppm,"[5]; Colletotrichum lindemuthianum, mixing partner alone, 0.2 ppm, read-out: Efficacy %",100%
same,inhibition of growth at 1 ppm,"[5]; Colletotrichum lindemuthianum, mixing partner alone, 1.0 ppm, read-out: Efficacy %",100%
same,inhibition of growth at 0.004 ppm,Fusarium culmorum; [9],6%
same,inhibition of growth at 0.02 ppm,Fusarium culmorum; [9],52%
same,inhibition of growth at 0.1 ppm,"Fusarium culmorum; Fusarium culmorum, 0.1 ppm, alone, read-out: Efficacy",98%
same,inhibition of growth at 0.004 ppm,Fusarium culmorum; [10],22%
same,inhibition of growth at 0.02 ppm,Fusarium culmorum; [10],22%
same,inhibition of growth at 0.008 ppm,"Diaporthe citri; Diaporthe citri, applied alone, 0.008 ppm, read-out: Efficacy",0%
same,inhibition of growth at 0.04 ppm,"Diaporthe citri; Diaporthe citri, applied alone, 0.04 ppm, read-out: Efficacy",95%
same,inhibition of growth at 0.2 ppm,"Diaporthe citri; Diaporthe citri, applied alone, 0.2 ppm, read-out: Efficacy",100%
same,inhibition of growth at 1 ppm,"Diaporthe citri; Diaporthe citri, applied alone, 1.0 ppm, read-out: Efficacy",99%
same,inhibition of growth at 0.008 ppm,"Botrytis cinerea; Botrytis cinerea, 0.008 ppm, read-out: Efficacy %",0%
same,inhibition of growth at 0.04 ppm,"Botrytis cinerea; Botrytis cinerea, 0.04 ppm, read-out: Efficacy %",48%
same,inhibition of growth at 0.2 ppm,"Botrytis cinerea; Botrytis cinerea, 0.2 ppm, read-out: Efficacy %",94%
same,inhibition of growth at 1 ppm,"Botrytis cinerea; Botrytis cinerea, 1.0 ppm, read-out: Efficacy %",100%
same,inhibition of growth at 0.004 ppm,"Colletotrichum coccodes; Colletotrichum coccodes, single active compound at 0.004 ppm, read-out: Efficacy %",0%
same,inhibition of growth at 0.02 ppm,"Colletotrichum coccodes; Colletotrichum coccodes, single active compound at 0.02 ppm, read-out: Efficacy %",1%
same,inhibition of growth at 0.5 ppm,"Colletotrichum coccodes; Colletotrichum coccodes, single active compound at 0.5 ppm, read-out: Efficacy %",100%
"N#Cc1ccc(Oc2ccc(C(F)(F)C(O)(Cn3[nH]cnc3=S)c3ccc(F)cc3F)nc2)cc1 (centres unmarked) [(1.062) fluoxytioconazole, fluoxytio-conazole]",Efficacy,Cordana musae [1]; 0.008 ppm,4%
same,Efficacy,Cordana musae [1]; 0.2 ppm,10%
same,Efficacy %,[6]; 0.04 ppm,43%
same,Efficacy %,"Cercospora beticola [2]; single compound, 0.008 ppm",0%
same,Efficacy %,"Cercospora beticola [2]; single compound, 0.04 ppm",0%
same,Efficacy %,"Cercospora beticola [2]; single compound, 0.2 ppm",0%
same,Efficacy %,"Cercospora beticola [2]; single compound, 1 ppm",48% and 54%
same,Efficacy,"Fusarium culmorum; single active compound, 1 ppm",30%
same,Efficacy %,Colletotrichum coccodes; 0.008 ppm,32%
same,Efficacy %,Colletotrichum coccodes; 0.04 ppm,0%
same,Efficacy %,Colletotrichum coccodes; single active compound at 0.008 ppm,0%
same,Efficacy %,Colletotrichum coccodes; single active compound at 0.04 ppm,2%
same,Efficacy %,Colletotrichum coccodes; single active compound at 0.2 ppm,29%
same,Efficacy %,Colletotrichum coccodes; single active compound at 1 ppm,35%
COCC(=O)N(c1c(C)cccc1C)[C@H](C)C(=O)OC [(12.004) metalaxylm],Efficacy %,[6]; 0.8 ppm,8%
same,Efficacy %,[6]; 100 ppm,3%
same,Efficacy %,Colletotrichum coccodes; single active compound at 0.8 ppm,40%
same,Efficacy %,Colletotrichum coccodes; [11],24%
same,Efficacy %,Colletotrichum coccodes; single active compound at 20 ppm,48%
same,Efficacy %,Colletotrichum coccodes; single active compound at 100 ppm,61%
Fc1ccc(Oc2ccnc3cc(Cl)cc(Cl)c23)cc1 [(13.005) quinoxifen],Efficacy %,"Cercospora beticola [2]; single compound, 0.08 ppm",3%
CCO[PH](=O)[O-].CCO[PH](=O)[O-].CCO[PH](=O)[O-].[Al+3] [(15.012) fosetyl-al],Efficacy,Cordana musae [1]; 0.8 ppm,0%
"CCO[PH](=O)[O-].CCO[PH](=O)[O-].CCO[PH](=O)[O-].[Al+3] [(15.012) fosetyl-aluminium, fosetyl-aluminium]",Efficacy %,"[5]; mixing partner alone, 4.0 ppm",0%
same,Efficacy %,"[5]; mixing partner alone, 20.0 ppm",8%
same,Efficacy %,"[5]; mixing partner alone, 100.0 ppm",70%
same,Efficacy %,[5]; single active at 0.8 ppm,0%
same,Efficacy %,[5]; single active at 4.0 ppm,0%
same,Efficacy %,[5]; single active at 100.0 ppm,39% and 58%
same,Efficacy,"Diaporthe citri; Table F11, 0.8 ppm alone",23%
same,Efficacy,"Diaporthe citri; Table F11, 4.0 ppm alone",0%
same,Efficacy,"Diaporthe citri; Table F11, 20.0 ppm alone",0%
same,Efficacy,"Diaporthe citri; Table F11, 100.0 ppm alone",0%
same,Efficacy,"Diaporthe citri; applied alone, 0.8 ppm",0%
same,Efficacy,"Diaporthe citri; applied alone, 4.0 ppm",23%
same,Efficacy,"Diaporthe citri; applied alone, 100.0 ppm",30%
CCO[PH](=O)[O-].CCO[PH](=O)[O-].CCO[PH](=O)[O-].[Al+3] [(15.012) fosetylaluminium],Efficacy %,Botrytis cinerea; 0.8 ppm,0%
same,Efficacy %,Botrytis cinerea; 4.0 ppm,13%
same,Efficacy %,Botrytis cinerea; 100.0 ppm,1%
"CS(=O)(=O)Oc1cccc(Cl)c1C1CC(c2csc(C3CCN(C(=O)Cn4nc(C(F)F)cc4C(F)F)CC3)n2)=NO1 (centres unmarked) [(15.043) fluoxapiprolin, fluoxa-piprolin]",Efficacy,Cordana musae [1]; 20 ppm,0%
same,Efficacy %,"Cercospora beticola [2]; single compound, 0.8 ppm",0%
same,Efficacy %,"Cercospora beticola [2]; single compound, 4 ppm",3% and 0%
same,Efficacy %,"Cercospora beticola [2]; single compound, 20 ppm",0%
same,Efficacy,"Fusarium culmorum; single active compound, 0.8 ppm",13%
same,Efficacy,"Fusarium culmorum; single active compound, 4 ppm",14%
same,Efficacy %,Colletotrichum coccodes; 0.8 ppm,0%
same,Efficacy %,Colletotrichum coccodes; 20 ppm,0%
same,Efficacy %,Colletotrichum coccodes; [11],0% and 2%
CCO[PH](=O)O [fosetylal],Efficacy,Alternaria alternata; 4 ppm,0%
same,Efficacy,Alternaria alternata; 20 ppm,4%
same,Efficacy,Alternaria alternata; 100 ppm,8%
same,Efficacy,"Alternaria alternata; single compound, 0.8 ppm",0%
same,Efficacy,"Alternaria alternata; single compound, 4 ppm",2%
same,Efficacy,"Fusarium culmorum; 0.8 ppm, alone",11%
CCCN(CC)CC1COC2(CCC(C(C)(C)C)CC2)O1 (centres unmarked) [spiroxamin],Efficacy,"Alternaria alternata; single compound, 0.8 ppm",3%
same,Efficacy,"Alternaria alternata; single compound, 4 ppm",15%
same,Efficacy,"Alternaria alternata; single compound, 20 ppm",15%
same,Efficacy,"Fusarium culmorum; 0.8 ppm, alone",3%
